The text below walks through data of US7658727B1, “Implantable medical device with enhanced biocompatibility and biostability” (Medtronic, Inc, priority 1998, dated 2010).

Common to all, as to type: cell-based
Assay [1] relates to IL-8. Put plainly: In vitro expression of IL-8 in human primary monocytes. To be noted: DEX 2.5, 0.25, 0.025 μg/ml; methotrexate 50, 5, 0.5 μg/ml.
Method: (§2) In order to assess the in vitro expression of IL-1α and IL-8, human primary monocytes were incubated with various concentrations of DEX (2.5, 0.25, and 0.025 μg/ml) and methotrexate (50, 5, and 0.5 μg/ml).
For assay [2], the system named is IL-1α. Put plainly: In vitro expression of IL-1α in human primary monocytes. To be noted: DEX 2.5, 0.25, 0.025 μg/ml; methotrexate 50, 5, 0.5 μg/ml.
Method: as §2
The test system of assay [3] is human monocyte-derived macrophage (Mo/MØs). As to the kind of experiment: Morphology of Mo/MØ monolayers on polyetherurethane (OM, SEM). The conditions noted are these: Mo/MØs cultured on PEU with DSP in culture media. Here is the method:
Human and rabbit blood was used as sources of the cells in these experiments. Blood was anticoagulated with 2 units/ml sodium heparin (Upjohn Co., Kalamazoo, MI). Mononuclear cells (lymphocytes, monocytes) were isolated within 15 minutes by a one-step density gradient centrifugation procedure using Isopaque-1077 (a density gradient solution) according to a modified Boyum's method (Boyum et al., Blood Separation and Plasma Fractionation, 217-239, Wiley-Liss, Inc. (1991)). The mononuclear cells were harvested and washed twice with cold Hanks balanced salt solution (HBSS) without Ca^2+ and Mg^2+ to minimize cell aggregation. The cells were then resuspended in standard media (RPMI-1640, 10% Fetal bovine serum, […], 10 Ul/ml Penicillin-G, and 0.1 mg/ml Streptomycin). The cell suspension was seeded into several plastic tissue culture flasks and incubated in the presence of 5% CO2 at 37° C. for 1 hour (Ackerman et al., J. Immunol., 20, 1372-1374 (1978)). After this incubation, adherent (monocytes) were gently scrapped from the surface and resuspended in standard media. […]
(§1) The polymer films (0.12 mm thick) were sufficiently thin and transparent to enable visualization of cells on their surfaces during cell culturing using optical microscopy (OM) with an Olympus BX40 light microscope. […] The polymer surfaces were also evaluated using SEM following the 10-day treatment with FeCl2. […]

The test system of assay [4] is human Mo/MØs. As to the kind of experiment: Surface analysis (OM/SEM) for environmental stress cracking after macrophage/FeCl2 treatment. To be noted: AS PEU exposed to Mo/MØs plus DSP followed by FeCl2. The method, then: Macrophage Treatment. The PEU film specimens (AS and non-AS) in the microwell plates were covered with either freshly isolated human or rabbit monocyte-derived macrophage (Mo/MØs), or human lymphocytes (3×10^5 cells per well) and cultured in a standard media (RPMI-1640, 10% Fetal bovine serum, […], 10 Ul/ml Penicillin-G and 0.1 mg/ml Streptomycin). A 49-day macrophage treatment was conducted under standard conditions (i.e., presence of 5% CO2, and 95% humidity at 37° C.). […] Two blank conditions were also studied. In one, culture media only was placed into the microwells. The other was prepared with no culture media and stored in the dark. All polymer specimens were incubated for the time of the first treatment. Samples in triplicate were removed after various time periods for hydroperoxide determination. After a 49-day incubation, specimens were prepared in triplicate for the second step of the sample treatment protocol.
FeCl2 treatment. […]
as §1

Consider `CN(Cc1cnc2nc(N)nc(N)c2n1)c1ccc(C(=O)N[C@@H](CCC(=O)O)C(=O)O)cc1` [methotrexate], for which, in assay [1], the IL-8 inhibition entry was “higher rate of IL-1 and IL-8 inhibition”. Besides, the IL-1 inhibition result in assay [2] is “higher rate of IL-1 and IL-8 inhibition”.

For the compound `C[C@@H]1C[C@H]2[C@@H]3CCC4=CC(=O)C=C[C@]4(C)[C@@]3(F)[C@@H](O)C[C@]2(C)[C@@]1(O)C(=O)COP(=O)(O)O` [DSP, dexamethasone sodium phosphate], the “cell size of Mo/MØ monolayers (OM)” value in assay [3] is “no increase in cell size”. Further, in assay [4], the “surface damage (SEM) after FeCl2” value was “only very occasional pits”.
